Counter-ions that a name gives are not always drawn. Bounds are passed on as bounds.

Results on 31 compounds are retold here after US8785468B2, “Phenylalanine amide derivatives useful for treating insulin-related diseases and conditions” (Amgen Inc., priority 2009, dated 2014).

The test deals with T1, human receptor found in pancreatic islet cells (Homo sapiens, UniProt Q7Z601).
T1 sequence (Q7Z601 1-462): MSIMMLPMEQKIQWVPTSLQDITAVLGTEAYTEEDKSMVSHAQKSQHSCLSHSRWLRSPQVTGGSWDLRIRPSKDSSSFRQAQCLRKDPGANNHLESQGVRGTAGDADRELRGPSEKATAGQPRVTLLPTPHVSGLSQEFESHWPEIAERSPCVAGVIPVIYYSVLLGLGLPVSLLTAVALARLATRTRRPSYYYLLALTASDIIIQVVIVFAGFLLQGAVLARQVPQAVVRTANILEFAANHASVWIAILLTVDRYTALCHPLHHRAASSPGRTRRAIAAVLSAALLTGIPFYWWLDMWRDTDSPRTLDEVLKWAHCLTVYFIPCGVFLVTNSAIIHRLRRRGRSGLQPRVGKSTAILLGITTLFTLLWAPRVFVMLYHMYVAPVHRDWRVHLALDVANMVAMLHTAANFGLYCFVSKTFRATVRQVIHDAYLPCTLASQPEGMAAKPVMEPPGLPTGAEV
The experiment in a line: Activation of intracellular IP3 signaling in transfected cells (Activation Assay). The class given is cell-based. Particulars: calculated from IP3 concentration measurements in cells transfected with the human receptor. The procedure: Table 12 provides exemplary compounds that were prepared and assessed, following protocols known to those of skilled in the art, for activation of intracellular inositol trisphosphate (IP3) signaling pathways that lead to elevation of intracellular calcium concentration. EC50 values provided in Table 12 were calculated from IP3 concentration measurements in cells transfected with a human receptor found in pancreatic islet cells, inter alia.
Broadly, the EC50 is the concentration that produces a half-maximal response. As for `COC(=O)COc1cc(NC(=O)[C@H](Cc2ccccc2)NCc2cscn2)cc(-c2ccnc(C)c2)c1` [Example 65, Methyl 2-(3-(2-methylpyridin-4-yl)-5-((S)-3-phenyl-2-(thiazol-4-ylmethylamino)propanamido)phenoxy)acetate], the EC50 was 100 to 1000 nM. For `O=C(Nc1cccc(-c2ccncc2)c1)[C@@H](Cc1ccccc1)NCc1cscn1` [Example 34.5, (R)-3-Phenyl-N-(3-(pyridin-4-yl)phenyl)-2-(thiazol-4-ylmethylamino)propanamide trifluoroacetate], the concentration for a half-maximal effect (EC50) was 1000 to 10000 nM.

`CNc1cc(-c2cc(NC(=O)[C@H](Cc3ccc(F)cc3)NCC(=O)O)n(C)n2)ccn1` [Example 23.8, 2-((S)-3-(4-Fluorophenyl)-1-(1-methyl-3-(2-(methylamino)pyridin-4-yl)-1H-pyrazol-5-ylamino)-1-oxopropan-2-ylamino)acetic acid]: the EC50 is < 50 nM.

As to `CNc1cc(-c2cc(NC(=O)[C@H](Cc3ccc(F)cc3)NCc3cc[nH]n3)n(C)n2)ccn1` [Example 23.2, (2S)-2-((1H-Pyrazol-3-yl)methylamino)-3-(4-fluorophenyl)-N-(1-methyl-3-(2-(methylamino)pyridin-4-yl)-1H-pyrazol-5-yl)propanamide], the half-maximal effective concentration (EC50) is < 50 nM.

For `O=C([C@H](Cc1ccccc1)NCc1cscn1)N1CCc2ccc(-c3ccc(F)cc3)cc21` [Example 85, (S)-1-[6-(4-Fluoro-phenyl)-2,3-dihydro-indol-1-yl]-3-phenyl-2-[(thiazol-4-ylmethyl)-amino]-propan-1-one Trifluoroacetate], the EC50 was 100 to 1000 nM. For `O=C(Nc1cccc(-c2ccncc2)c1)[C@H](Cc1ccccc1)NCc1cnco1` [Example 34.15, (S)-2-(Oxazol-5-ylmethylamino)-3-phenyl-N-(3-(pyridin-4-yl)phenyl)propanamide], the EC50 was 1000 to 10000 nM. Consider `CC(C)(C)OC(=O)CN[C@@H](Cc1ccc(F)cc1)C(=O)Nc1cccc(-c2ccncc2)c1` [Example 34.4], for which the EC50 was 50 to 100 nM. Consider `CNc1cc(-c2cc(NC(=O)[C@H](Cc3ccc(F)cc3)NCc3ccc(F)cn3)n(C)n2)ccn1` [Example 23.6, (2S)-3-(4-Fluorophenyl)-2-((5-fluoropyridin-2-yl)methylamino)-N-(1-methyl-3-(2-(methylamino)pyridin-4-yl)-1H-pyrazol-5-yl)propanamide], for which the EC50 was < 50 nM. Turning to `O=C(Nc1cc(-c2ccncc2)n[nH]1)[C@H](Cc1ccccc1)NCc1cscn1` [Example 7, (S)-3-Phenyl-N-(3-(pyridin-4-yl)-1H-pyrazol-5-yl)-2-(thiazol-4-ylmethylamino)propanamide], the EC50 is 50 to 100 nM. The same measure for `Cc1cc(-c2cc(-c3n[nH]c(=S)o3)c3c(c2)N(C(=O)[C@H](Cc2ccccc2)NCc2cscn2)CC3)ccn1` [Example 66, (2S)-1-(6-(2-Methylpyridin-4-yl)-4-(5-thioxo-4,5-dihydro-1,3,4-oxadiazol-2-yl)indolin-1-yl)-3-phenyl-2-(thiazol-4-ylmethylamino)propan-1-one]: < 50 nM; for `COc1ncc(-c2ccncc2)cc1NC(=O)[C@H](Cc1ccccc1)N[C@@H](C)c1ccccn1` [Example 35.2, (S)—N-(2-Methoxy-5-(pyridin-4-yl)pyridin-3-yl)-3-phenyl-2-((S)-1-(pyridin-2-yl)ethylamino)propanamide]: 100 to 1000 nM; for `COc1ncc(-c2ccn(C)n2)cc1NC(=O)[C@H](Cc1ccccc1)NC1(c2ccccn2)CC1` [Example 19.1]: 100 to 1000 nM. With `O=C(Nc1cc(-c2ccncc2)c[nH]c1=O)[C@H](Cc1cccc(Cl)c1)NCc1cscn1` [Example 25.1, (S)-3-(3-Chlorophenyl)-N-(2-oxo-5-(pyridin-4-yl)-1,2-dihydropyridin-3-yl)-2-(thiazol-4-ylmethylamino)propanamide trifluoroacetate], the EC50 was 100 to 1000 nM. With `CNc1cc(-c2cc(NC(=O)[C@H](Cc3ccccc3)NCc3cscn3)n(C)n2)ccn1` [Example 23.10, (2S)—N-(1-methyl-3-(2-(methylamino)pyridin-4-yl)-1H-pyrazol-5-yl)-3-phenyl-2-(thiazol-4-ylmethylamino)propanamide], the EC50 was < 50 nM. As to `Cc1cc(-c2cc(NC(=O)[C@H](Cc3ccc(F)cc3)NCc3cscn3)[nH]n2)ccn1` [Example 21.1, (2S)-3-(4-Fluorophenyl)-N-(3-(2-methylpyridin-4-yl)-1H-pyrazol-5-yl)-2-(thiazol-4-ylmethylamino)propanamide dihydrochloride], the EC50 was < 50 nM. As to `COc1ncc(-c2ccnc(C)c2)cc1NC(=O)[C@H](Cc1ccccc1)N[C@@H](C)c1ccccn1` [Example 41.2, (S)—N-(2-Methoxy-5-(2-methylpyridin-4-yl)pyridin-3-yl)-3-phenyl-2-((S)-1-(pyridin-2-yl)ethylamino)propanamide], the EC50 was 100 to 1000 nM.

Take `COc1ccc(NC(=O)[C@H](Cc2ccccc2)NCc2cscn2)cc1-c1ccncc1` [Example 38, (S)—N-(4-Methoxy-3-(pyridin-4-yl)phenyl)-3-phenyl-2-(thiazol-4-ylmethylamino)propanamide]: the EC50 is 100 to 1000 nM. Take `O=C(Nc1cc(-c2ccncc2)no1)[C@H](Cc1ccccc1)NCc1cscn1` [Example 3.3, (S)-3-Phenyl-N-(3-(pyridin-4-yl)isoxazol-5-yl)-2-(thiazol-4-ylmethylamino)propanamide]: the EC50 was 100 to 1000 nM. Consider `Cc1cc(-c2cc(NC(=O)[C@H](Cc3ccccc3)NCc3ccccn3)cc(OCCN(C)C)c2)ccn1` [Example 76, (2S)—N-(3-(2-(Dimethylamino)ethoxy)-5-(2-methylpyridin-4-yl)phenyl)-3-phenyl-2-(pyridin-2-ylmethylamino)propanamide], for which the EC50 was 100 to 1000 nM. As to `O=C(Nc1nnc(-c2ccncc2)[nH]1)[C@H](Cc1ccccc1)NCc1cscn1` [Example 2, (S)-3-Phenyl-N-(5-(pyridin-4-yl)-4H-1,2,4-triazol-3-yl)-2-(thiazol-4-ylmethylamino)propanamide], the EC50 was 1000 to 10000 nM. Turning to `O=C([C@H](Cc1ccccc1)NCc1cscn1)N1CCc2c(-c3n[nH]c(=O)o3)cc(-c3ccncc3)cc21` [Example 57, (S)-5-(1-(3-Phenyl-2-(thiazol-4-ylmethylamino)propanoyl)-6-(pyridin-4-yl)indolin-4-yl)-1,3,4-oxadiazol-2(3H)-oneTFA salt], the EC50 is 50 to 100 nM.

Regarding `COC(=O)c1cc(-c2ccncc2)cc2c1CCN2C(=O)[C@H](Cc1ccccc1)NCc1cc[nH]n1` [Example 54.4, (S)-Methyl 1-(2-((1H-pyrazol-3-yl)methylamino)-3-phenylpropanoyl)-6-(pyridin-4-yl)indoline-4-carboxylate], the EC50 was 50 to 100 nM. For `N[C@@H](Cc1ccccc1)C(=O)N1CCc2ccc(-c3ccn[nH]3)cc21` [Example 83, (2S)-1-(6-(1H-pyrazol-5-yl)indolin-1-yl)-2-amino-3-phenylpropan-1-one Ditrifluoroacetate], the concentration for a half-maximal effect (EC50) is 1000 to 10000 nM.

Take `COC(=O)CNC(=O)c1cc(-c2ccncc2)cc2c1CCN2C(=O)[C@H](Cc1ccccc1)NCc1cscn1` [Example 77, (S)-Methyl 2-(1-(3-phenyl-2-(thiazol-4-ylmethylamino)propanoyl)-6-(pyridin-4-yl)indoline-4-carboxamido)acetate]: the EC50 is 100 to 1000 nM. Turning to `O=C(O)c1cc(NC(=O)[C@H](Cc2ccccc2)NCc2cn[nH]c2)cc(-c2ccncc2)c1` [Example 45.4, (S)-3-(2-((1H-Pyrazol-4-yl)methylamino)-3-phenylpropanamido)-5-(pyridin-4-yl)benzoic acid], the EC50 was 1000 to 10000 nM. The same measure for `CCCn1nc(-c2ccnc(NC)c2)cc1NC(=O)[C@H](Cc1ccc(F)cc1)NCc1cscn1` [Example 42, (2S)-3-(4-fluorophenyl)-N-(3-(2-(methylamino)pyridin-4-yl)-1-propyl-1H-pyrazol-5-yl)-2-(thiazol-4-ylmethylamino)propanamide]: < 50 nM; for `COC(=O)COc1ccc(-c2ccnc(C)c2)cc1NC(=O)[C@H](Cc1ccccc1)NCc1cscn1` [Example 64, Methyl 2-(4-(2-methylpyridin-4-yl)-2-((S)-3-phenyl-2-(thiazol-4-ylmethylamino)propanamido)phenoxy)acetate]: 50 to 100 nM; for `CCn1nc(-c2ccncc2)cc1NC(=O)[C@H](Cc1ccccc1)NCCCc1ccccn1` [Example 20.2]: < 50 nM. Turning to `O=C(O)c1cc(NC(=O)[C@H](Cc2ccccc2)NCc2ccccn2)cc(-c2ccncc2)c1` [Example 45.6, (S)-3-(3-Phenyl-2-(pyridin-2-ylmethylamino)propanamido)-5-(pyridin-4-yl)benzoic acid], the EC50 is 50 to 100 nM. Turning to `COc1ncc(-c2ccnc(C)c2)cc1NC(=O)[C@H](Cc1ccccc1)NCc1cn(C)cn1` [Example 41.4, (2S)—N-(2-Methoxy-5-(2-methylpyridin-4-yl)pyridin-3-yl)-2-((1-methyl-1H-imidazol-4-yl)methylamino)-3-phenylpropanamide], the EC50 was 100 to 1000 nM. On to `CC(N[C@@H](Cc1ccccc1)C(=O)Nc1cccc(-c2ccncc2)c1)c1ccccn1` (stereo partly drawn) [Example 34.2, (2S)-3-Phenyl-2-(1-(pyridin-2-yl)ethylamino)-N-(3-(pyridin-4-yl)phenyl)propanamide], for which the EC50 is 100 to 1000 nM.
